Values of other authors, collected in patent publication US7402577B2, “Androstane 17-beta-carboxamides as androgen receptor modulators” (priority 2001, dated 2008).

Legend:
[1] = system: spinal BMD; conditions: after 7 years of treatment
[2] = system: fractures; conditions: postmenopausal osteoporotic women, median of 22 months of treatment

| Compound | increase in spinal BMD [1] [%] | reduction in nonvertebral fractures [2] [%] | reduction in spine fractures [2] [%] |
| --- | --- | --- | --- |
| NCCCC(O)(P(=O)([O-])O)P(=O)(O)O.O.O.O.[Na+] [alendronate, (4-amino-1-hydroxybutylidene)-bis-phosphonate monosodium trihydrate] | ≤ 11 |  |  |
| hPTH(1-34): human parathyroid hormone 1-34 fragment (SVSEIQLMHNLGKHLNSMERVEWLRKKLQDVHNF; Parathyroid hormone; UniProt P01270 32-65, looked up, fragment) |  | 54 | ≥ 65 |
